Read-outs that look alike come from different tables or passages of the source.
Legend:
Experiment in all cases: TGFα-shedding assay-based GPCR screening with chimeric Gα subunit proteins
Type in all cases: cell-based
348 GPCRs [1] = molecular target: T1, 348 GPCRs (Homo sapiens, UniProt Q8TDT2); conditions: 10µM, Favipiravir 100μM
T1 construct: expressed in transfected cells; host or cells: HEK293A

348 GPCRs [2] = molecular target: 348 GPCRs (Homo sapiens, UniProt Q99500); conditions: 10µM, Favipiravir 100μM
348 GPCRs [3] = molecular target: 348 GPCRs (Homo sapiens, UniProt Q96LA9); conditions: 10µM, Favipiravir 100μM
348 GPCRs [4] = molecular target: T2, 348 GPCRs (Homo sapiens, UniProt P08172)
T2 sequence (P08172 1-466): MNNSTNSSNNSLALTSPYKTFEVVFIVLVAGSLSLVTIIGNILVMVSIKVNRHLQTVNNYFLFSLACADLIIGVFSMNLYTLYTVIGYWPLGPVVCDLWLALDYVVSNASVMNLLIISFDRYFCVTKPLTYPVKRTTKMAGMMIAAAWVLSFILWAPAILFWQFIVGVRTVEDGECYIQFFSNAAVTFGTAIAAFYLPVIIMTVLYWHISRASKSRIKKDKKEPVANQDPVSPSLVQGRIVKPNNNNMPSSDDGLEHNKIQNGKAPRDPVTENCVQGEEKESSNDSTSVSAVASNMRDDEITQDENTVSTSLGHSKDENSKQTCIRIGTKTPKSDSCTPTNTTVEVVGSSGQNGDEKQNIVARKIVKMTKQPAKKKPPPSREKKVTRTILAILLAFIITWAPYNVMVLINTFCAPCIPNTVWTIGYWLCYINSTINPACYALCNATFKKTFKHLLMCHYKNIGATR

348 GPCRs [5] = molecular target: T3, 348 GPCRs (Homo sapiens, UniProt Q9UBS5); conditions: 10µM, Favipiravir 100μM
T3 construct: expressed in transfected cells; host or cells: HEK293A

348 GPCRs [6] = molecular target: 348 GPCRs (Homo sapiens, UniProt P41595); conditions: 10µM, Favipiravir 100μM
348 GPCRs [7] = molecular target: T4, 348 GPCRs (Homo sapiens, UniProt Q99679); conditions: 10µM, Favipiravir 100μM
T4 construct: expressed in transfected cells; host or cells: HEK293A

348 GPCRs [8] = molecular target: 348 GPCRs (Homo sapiens, UniProt P43220); conditions: 10µM, Favipiravir 100μM
348 GPCRs [9] = molecular target: T5, 348 GPCRs (Homo sapiens, UniProt P51679); conditions: 10µM, Favipiravir 100μM
T5 construct: expressed in transfected cells; host or cells: HEK293A
T5 sequence (P51679 1-360): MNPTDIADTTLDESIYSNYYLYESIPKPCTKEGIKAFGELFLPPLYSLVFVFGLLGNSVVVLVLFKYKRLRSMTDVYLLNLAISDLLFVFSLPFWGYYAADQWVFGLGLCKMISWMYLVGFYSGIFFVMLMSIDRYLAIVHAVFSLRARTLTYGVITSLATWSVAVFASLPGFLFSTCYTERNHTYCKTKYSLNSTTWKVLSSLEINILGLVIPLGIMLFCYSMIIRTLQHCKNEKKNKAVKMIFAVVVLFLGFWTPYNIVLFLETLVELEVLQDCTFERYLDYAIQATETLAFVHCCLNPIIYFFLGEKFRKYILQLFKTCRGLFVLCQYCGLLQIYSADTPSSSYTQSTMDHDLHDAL

348 GPCRs [10] = molecular target: T6, 348 GPCRs (Homo sapiens, UniProt Q6DWJ6); conditions: 10µM, Favipiravir 100μM
T6 construct: expressed in transfected cells; host or cells: HEK293A
T6 sequence (Q6DWJ6 1-353): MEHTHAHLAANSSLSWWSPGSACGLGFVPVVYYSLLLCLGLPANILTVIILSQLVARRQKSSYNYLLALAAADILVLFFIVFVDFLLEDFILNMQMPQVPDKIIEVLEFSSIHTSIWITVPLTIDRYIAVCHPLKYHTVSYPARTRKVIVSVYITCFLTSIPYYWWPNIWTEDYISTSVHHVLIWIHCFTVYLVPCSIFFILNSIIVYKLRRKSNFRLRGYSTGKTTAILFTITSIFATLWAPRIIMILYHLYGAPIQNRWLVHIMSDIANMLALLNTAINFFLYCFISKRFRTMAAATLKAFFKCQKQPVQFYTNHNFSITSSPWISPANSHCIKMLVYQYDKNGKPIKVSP

348 GPCRs [11] = molecular target: T7, 348 GPCRs (Homo sapiens, UniProt P35410)
T7 construct: expressed in transfected cells; host or cells: HEK293A
T7 sequence (P35410 1-378): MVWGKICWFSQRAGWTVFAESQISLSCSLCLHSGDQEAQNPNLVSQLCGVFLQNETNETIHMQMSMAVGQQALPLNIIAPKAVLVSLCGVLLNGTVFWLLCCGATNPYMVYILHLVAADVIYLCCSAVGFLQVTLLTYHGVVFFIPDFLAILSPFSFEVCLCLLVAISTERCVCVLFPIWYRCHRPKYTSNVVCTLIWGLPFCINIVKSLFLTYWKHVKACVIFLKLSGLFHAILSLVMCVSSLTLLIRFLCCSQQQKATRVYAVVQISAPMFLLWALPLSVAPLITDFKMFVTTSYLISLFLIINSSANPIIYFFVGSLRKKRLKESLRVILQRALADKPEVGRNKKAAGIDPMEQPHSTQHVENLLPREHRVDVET

348 GPCRs [12] = molecular target: T8, 348 GPCRs (Homo sapiens, UniProt Q9H1Y3); conditions: 10µM, Favipiravir 100μM
T8 construct: expressed in transfected cells; host or cells: HEK293A

[13] = GPR152 (G Protein-Coupled Receptor 152), read-out: % GPCR activation compared to TPA
[14] = S1PR3 (sphingosine-1-phosphate receptor 3), read-out: % GPCR activation compared to TPA
[15] = MRGPRX4 (MAS-related GPR, member X4), read-out: % GPCR activation compared to TPA
[16] = MRGX4 (MAS-related GPR, member X4), read-out: % GPCR activation compared to TPA
[17] = GPCR M2 (Muscarinic acetylcholine receptor M2), read-out: % GPCR activation compared to TPA
[18] = GABBR1 (gamma-aminobutyric acid (GABA) B receptor, 1), read-out: % GPCR activation compared to TPA
[19] = HTR2B (5-hydroxytryptamine (serotonin) receptor 2B), read-out: % GPCR activation compared to TPA
[20] = GPR21 (G Protein-Coupled Receptor 21), read-out: % GPCR activation compared to TPA
[21] = GLP1R (glucagon-like peptide 1 receptor), read-out: % GPCR activation compared to TPA
[22] = CCR4 (C-C motif chemokine receptor 4), read-out: % GPCR activation compared to TPA
[23] = GPR139 (G protein-coupled receptor 139), read-out: % GPCR activation compared to TPA
[24] = GPCR MAS1L (MAS1 oncogene-like), read-out: % GPCR activation compared to TPA
[25] = OPN3 (opsin 3), read-out: % GPCR activation compared to TPA
[26] = read-out: % GPCR activation compared to TPA, GPR152 (G Protein-Coupled Receptor 152)
[27] = read-out: % GPCR activation compared to TPA, S1PR3 (sphingosine-1-phosphate receptor 3)
[28] = read-out: % GPCR activation compared to TPA, MRGPRX4 (MAS-related GPR, member X4)
[29] = read-out: % GPCR activation compared to TPA, MRGX4 (MAS-related GPR, member X4)
[30] = read-out: % GPCR activation compared to TPA, GPCR M2 (Muscarinic acetylcholine receptor M2)
[31] = read-out: % GPCR activation compared to TPA, GABBR1 (gamma-aminobutyric acid (GABA) B receptor, 1)
[32] = read-out: % GPCR activation compared to TPA, HTR2B (5-hydroxytryptamine (serotonin) receptor 2B)
[33] = read-out: % GPCR activation compared to TPA, GPR21 (G Protein-Coupled Receptor 21)
[34] = read-out: % GPCR activation compared to TPA, GLP1R (glucagon-like peptide 1 receptor)
[35] = read-out: % GPCR activation compared to TPA, CCR4 (C-C motif chemokine receptor 4)
[36] = read-out: % GPCR activation compared to TPA, GPR139 (G protein-coupled receptor 139)
[37] = read-out: % GPCR activation compared to TPA, GPCR MAS1L (MAS1 oncogene-like)
[38] = read-out: % GPCR activation compared to TPA, OPN3 (opsin 3)

Chain of 348 GPCRs (Homo sapiens, UniProt Q99500) (Q99500 whole entry): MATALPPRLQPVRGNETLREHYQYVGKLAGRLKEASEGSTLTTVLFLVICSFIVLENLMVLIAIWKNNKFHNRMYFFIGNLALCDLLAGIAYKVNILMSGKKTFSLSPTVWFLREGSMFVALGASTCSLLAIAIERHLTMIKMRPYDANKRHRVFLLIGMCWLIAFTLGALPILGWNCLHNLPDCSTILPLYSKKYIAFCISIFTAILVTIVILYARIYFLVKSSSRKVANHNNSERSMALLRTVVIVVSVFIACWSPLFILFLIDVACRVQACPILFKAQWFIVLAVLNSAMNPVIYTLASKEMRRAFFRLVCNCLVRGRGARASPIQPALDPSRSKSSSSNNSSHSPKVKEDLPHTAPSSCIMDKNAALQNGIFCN
T8 sequence (Q9H1Y3 whole entry): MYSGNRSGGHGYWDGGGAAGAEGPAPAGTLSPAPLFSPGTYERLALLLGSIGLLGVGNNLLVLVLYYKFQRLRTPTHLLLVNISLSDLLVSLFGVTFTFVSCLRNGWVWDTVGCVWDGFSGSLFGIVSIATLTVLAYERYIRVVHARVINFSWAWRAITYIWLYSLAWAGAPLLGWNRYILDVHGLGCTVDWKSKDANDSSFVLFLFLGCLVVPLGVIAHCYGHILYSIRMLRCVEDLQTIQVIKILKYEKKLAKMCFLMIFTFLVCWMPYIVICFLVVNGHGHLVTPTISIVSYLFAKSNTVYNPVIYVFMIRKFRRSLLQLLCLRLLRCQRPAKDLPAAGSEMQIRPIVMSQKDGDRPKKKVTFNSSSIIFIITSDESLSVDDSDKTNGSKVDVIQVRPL
T4 sequence (Q99679 whole entry): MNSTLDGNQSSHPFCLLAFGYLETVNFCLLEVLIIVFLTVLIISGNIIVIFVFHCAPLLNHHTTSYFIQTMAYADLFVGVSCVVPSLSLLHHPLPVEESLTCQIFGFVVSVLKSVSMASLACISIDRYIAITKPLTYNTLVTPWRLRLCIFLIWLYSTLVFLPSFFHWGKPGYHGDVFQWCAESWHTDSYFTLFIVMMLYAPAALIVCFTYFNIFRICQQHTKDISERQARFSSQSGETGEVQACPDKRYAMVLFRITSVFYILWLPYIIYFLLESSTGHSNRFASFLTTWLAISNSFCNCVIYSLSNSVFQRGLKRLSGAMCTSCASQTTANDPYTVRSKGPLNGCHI
T1 sequence (Q8TDT2 whole entry): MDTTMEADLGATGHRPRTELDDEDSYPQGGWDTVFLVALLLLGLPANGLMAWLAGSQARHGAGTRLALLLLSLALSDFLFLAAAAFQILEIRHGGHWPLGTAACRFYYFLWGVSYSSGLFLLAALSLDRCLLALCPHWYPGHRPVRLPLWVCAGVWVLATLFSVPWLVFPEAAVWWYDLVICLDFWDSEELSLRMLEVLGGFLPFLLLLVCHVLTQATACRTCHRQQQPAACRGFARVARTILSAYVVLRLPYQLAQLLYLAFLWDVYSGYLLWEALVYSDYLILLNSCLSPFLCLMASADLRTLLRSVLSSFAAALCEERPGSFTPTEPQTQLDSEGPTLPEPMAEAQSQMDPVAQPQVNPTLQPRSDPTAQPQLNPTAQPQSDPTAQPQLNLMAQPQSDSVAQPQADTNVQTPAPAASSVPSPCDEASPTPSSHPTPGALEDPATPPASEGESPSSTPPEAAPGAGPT
Chain of 348 GPCRs (Homo sapiens, UniProt Q96LA9) (Q96LA9 whole entry): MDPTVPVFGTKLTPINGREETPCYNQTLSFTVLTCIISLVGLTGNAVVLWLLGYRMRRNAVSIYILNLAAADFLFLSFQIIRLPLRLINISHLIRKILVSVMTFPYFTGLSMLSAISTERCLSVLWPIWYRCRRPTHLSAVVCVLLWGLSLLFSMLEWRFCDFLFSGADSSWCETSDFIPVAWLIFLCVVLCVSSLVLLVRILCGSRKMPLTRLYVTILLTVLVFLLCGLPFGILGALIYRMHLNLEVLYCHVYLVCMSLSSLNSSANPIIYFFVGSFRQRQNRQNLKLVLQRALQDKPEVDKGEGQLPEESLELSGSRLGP
Chain of 348 GPCRs (Homo sapiens, UniProt P43220) (P43220 24-463): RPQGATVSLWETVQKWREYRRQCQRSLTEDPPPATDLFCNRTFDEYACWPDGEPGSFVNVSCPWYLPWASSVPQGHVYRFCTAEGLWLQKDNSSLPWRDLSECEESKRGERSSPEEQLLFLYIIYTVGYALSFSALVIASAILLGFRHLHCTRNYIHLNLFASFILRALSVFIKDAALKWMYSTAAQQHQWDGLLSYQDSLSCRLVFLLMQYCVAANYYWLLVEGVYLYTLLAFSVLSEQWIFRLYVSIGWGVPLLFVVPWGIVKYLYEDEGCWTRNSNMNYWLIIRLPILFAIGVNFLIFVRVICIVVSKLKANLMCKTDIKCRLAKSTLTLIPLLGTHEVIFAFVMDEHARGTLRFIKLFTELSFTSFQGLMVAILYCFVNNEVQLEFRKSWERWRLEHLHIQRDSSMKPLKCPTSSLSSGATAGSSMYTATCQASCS
T3 sequence (Q9UBS5 20-961): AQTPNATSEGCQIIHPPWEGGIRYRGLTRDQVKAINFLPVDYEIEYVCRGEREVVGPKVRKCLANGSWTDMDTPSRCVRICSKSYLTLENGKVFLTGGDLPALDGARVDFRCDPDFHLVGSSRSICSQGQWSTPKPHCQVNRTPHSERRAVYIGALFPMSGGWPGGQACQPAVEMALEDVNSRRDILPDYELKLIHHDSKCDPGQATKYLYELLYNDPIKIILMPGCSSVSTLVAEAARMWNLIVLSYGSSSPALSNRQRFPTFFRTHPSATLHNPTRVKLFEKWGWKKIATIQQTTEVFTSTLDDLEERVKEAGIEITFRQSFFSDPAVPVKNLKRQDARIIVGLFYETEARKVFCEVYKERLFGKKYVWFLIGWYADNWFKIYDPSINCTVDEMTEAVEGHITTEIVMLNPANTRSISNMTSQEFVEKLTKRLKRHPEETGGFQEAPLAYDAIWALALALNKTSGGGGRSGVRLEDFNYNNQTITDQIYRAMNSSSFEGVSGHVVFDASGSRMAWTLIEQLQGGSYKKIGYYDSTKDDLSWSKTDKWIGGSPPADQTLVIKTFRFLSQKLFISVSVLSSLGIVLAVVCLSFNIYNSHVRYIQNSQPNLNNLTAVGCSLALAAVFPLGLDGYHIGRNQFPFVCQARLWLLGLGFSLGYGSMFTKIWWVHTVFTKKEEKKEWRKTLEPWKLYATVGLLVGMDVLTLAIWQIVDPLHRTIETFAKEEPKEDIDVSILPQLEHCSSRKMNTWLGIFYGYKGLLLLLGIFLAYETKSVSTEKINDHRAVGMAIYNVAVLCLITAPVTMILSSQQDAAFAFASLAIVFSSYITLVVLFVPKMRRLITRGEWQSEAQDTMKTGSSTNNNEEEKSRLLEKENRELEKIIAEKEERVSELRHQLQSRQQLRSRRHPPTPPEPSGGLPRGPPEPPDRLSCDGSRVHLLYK
Chain of 348 GPCRs (Homo sapiens, UniProt P41595) (P41595 whole entry): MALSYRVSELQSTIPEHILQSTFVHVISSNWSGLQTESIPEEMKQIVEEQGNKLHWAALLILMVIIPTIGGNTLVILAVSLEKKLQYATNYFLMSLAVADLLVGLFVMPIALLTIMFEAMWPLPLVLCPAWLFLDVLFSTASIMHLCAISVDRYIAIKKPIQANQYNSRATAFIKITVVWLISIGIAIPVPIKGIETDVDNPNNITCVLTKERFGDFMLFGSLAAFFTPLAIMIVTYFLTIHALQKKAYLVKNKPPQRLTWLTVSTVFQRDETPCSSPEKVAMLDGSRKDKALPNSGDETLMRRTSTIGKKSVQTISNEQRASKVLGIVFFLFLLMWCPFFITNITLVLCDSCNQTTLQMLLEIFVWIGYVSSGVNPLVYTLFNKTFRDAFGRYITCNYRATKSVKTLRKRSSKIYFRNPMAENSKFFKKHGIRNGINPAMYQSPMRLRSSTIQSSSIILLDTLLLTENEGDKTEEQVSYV

SMILES	activation at 10 µM (348 GPCRs [1]; [13]) [%]	activation at 10 µM (348 GPCRs [2]; [14]) [%]	activation at 100 µM (348 GPCRs [3]; [15]) [%]	activation at 100 µM (348 GPCRs [3]; [16]) [%]	activation at 10 µM (348 GPCRs [4]; [17]) [%]	activation at 100 µM (348 GPCRs [5]; [18]) [%]	activation at 100 µM (348 GPCRs [6]; [19]) [%]	activation at 100 µM (348 GPCRs [7]; [20]) [%]	activation at 10 µM (348 GPCRs [8]; [21]) [%]	activation at 100 µM (348 GPCRs [9]; [22]) [%]	activation at 100 µM (348 GPCRs [10]; [23]) [%]	activation at 10 µM (348 GPCRs [11]; [24]) [%]	activation at 100 µM (348 GPCRs [12]; [25]) [%]	activation at 10 µM (348 GPCRs [1]; [26]) [%]	activation at 10 µM (348 GPCRs [2]; [27]) [%]	activation at 100 µM (348 GPCRs [3]; [28]) [%]	activation at 100 µM (348 GPCRs [3]; [29]) [%]	activation at 10 µM (348 GPCRs [4]; [30]) [%]	activation at 100 µM (348 GPCRs [5]; [31]) [%]	activation at 100 µM (348 GPCRs [6]; [32]) [%]	other results
N#C[C@@]1(c2ccc3c(N)ncnn23)O[C@H](CO)[C@@H](O)[C@H]1O [GS441524]	-0.232	-2.2	-1.84	0.701	4.87	-3.77	0.0796	0.0472	-1.52	-0.385	-6.35	3.15	-0.281								
CCC(CC)COC(=O)[C@H](C)N[P@](=O)(OC[C@H]1O[C@@](C#N)(c2ccc3c(N)ncnn23)[C@H](O)[C@@H]1O)Oc1ccccc1 [remdesivir]														-0.751	-2.57	-0.071	-1.24	6	-3.66	-4.14	activation at 100 µM (348 GPCRs [7]; [33]): -0.776%; activation at 10 µM (348 GPCRs [8]; [34]): -0.928%; activation at 100 µM (348 GPCRs [9]; [35]): 1.77%; activation at 100 µM (348 GPCRs [10]; [36]): 2.27%; activation at 10 µM (348 GPCRs [11]; [37]): 0.269%; activation at 100 µM (348 GPCRs [12]; [38]): -0.473%
CC(C)OC(=O)[C@H](C)N[P@](=O)(OC[C@H]1O[C@@H](n2ccc(=O)[nH]c2=O)[C@](C)(F)[C@@H]1O)Oc1ccccc1 [sofosbuvir]														1.86	-0.452	-0.776	-14.4	1.35	-1.14	-0.398	activation at 100 µM (348 GPCRs [7]; [33]): 0.161%; activation at 10 µM (348 GPCRs [8]; [34]): -2.54%; activation at 100 µM (348 GPCRs [9]; [35]): -2.38%; activation at 100 µM (348 GPCRs [10]; [36]): -27.2%; activation at 10 µM (348 GPCRs [11]; [37]): 0.457%; activation at 100 µM (348 GPCRs [12]; [38]): 0.266%

Further lines, with some results ahead:

activation at 10 µM (348 GPCRs [1]; [13]) [%]	activation at 10 µM (348 GPCRs [2]; [14]) [%]	activation at 100 µM (348 GPCRs [3]; [15]) [%]	activation at 100 µM (348 GPCRs [3]; [16]) [%]	activation at 10 µM (348 GPCRs [4]; [17]) [%]	activation at 100 µM (348 GPCRs [5]; [18]) [%]	activation at 100 µM (348 GPCRs [6]; [19]) [%]	activation at 100 µM (348 GPCRs [7]; [20]) [%]	activation at 10 µM (348 GPCRs [8]; [21]) [%]	activation at 100 µM (348 GPCRs [9]; [22]) [%]	activation at 100 µM (348 GPCRs [10]; [23]) [%]	activation at 10 µM (348 GPCRs [11]; [24]) [%]	activation at 100 µM (348 GPCRs [12]; [25]) [%]	SMILES	activation at 10 µM (348 GPCRs [1]; [26]) [%]	activation at 10 µM (348 GPCRs [2]; [27]) [%]	activation at 100 µM (348 GPCRs [3]; [28]) [%]	activation at 100 µM (348 GPCRs [3]; [29]) [%]	activation at 10 µM (348 GPCRs [4]; [30]) [%]	activation at 100 µM (348 GPCRs [5]; [31]) [%]	activation at 100 µM (348 GPCRs [6]; [32]) [%]	other results
-0.401	-2	-1.47	-11.1		-4.01	0.187	-0.0313	-2.54	0.85	-7.28		-0.343	NC(=O)c1nc(F)cnc1O [favipiravir, 6-fluoro-3-hydroxy-2-pyrazinecarboxamide]								activation at 100 µM (348 GPCRs [4]; GPCR M2 (Muscarinic acetylcholine receptor M2), 100μM, read-out: % GPCR activation compared to TPA): 2.32%; activation at 100 µM (348 GPCRs [11]; GPCR MAS1L (MAS1 oncogene-like), 100μM, read-out: % GPCR activation compared to TPA): -0.101%
-1.29	-2.52	-2.9	-28.1	0.695	-1.05	-1.16	0.1	-2.83	1.67	-23.9	0.3	-0.438	CC(C)C(=O)OC[C@H]1O[C@@H](n2ccc(NO)nc2=O)[C@H](O)[C@@H]1O [molnupiravir]								

Source: article PMC10175918 (Communications Biology, 2023)
